The values below come from ChEMBL document CHEMBL4765377, “Design, synthesis, and evaluation of amphiphilic sofalcone derivatives as potent Gram-positive antibacterial agents” (Eur J Med Chem, 2020).

The MIC is the least concentration at which growth counts as inhibited. The term HC50 denotes the concentration that lyses half of the red blood cells. A high value points to weaker haemolysis.

In data set [1] the test system is Staphylococcus aureus. Briefly: Antibacterial activity against Staphylococcus aureus ATCC 29213 assessed as reduction in bacterial growth after 24 hrs by CLSI based broth micro dilution method. The class given is functional.
Data set [2] has as its system Staphylococcus aureus. Briefly: Antibacterial activity against methicillin-resistant Staphylococcus aureus N315 assessed as reduction in bacterial growth after 24 hrs by CLSI based broth micro dilution method. The class given is functional.
In data set [3] the test system is Staphylococcus aureus. Briefly: Antibacterial activity against methicillin-resistant Staphylococcus aureus NCTC10442 assessed as reduction in bacterial growth after 24 hrs by CLSI based broth micro dilution method. The class given is functional.
Data set [4] has as its system Escherichia coli. Briefly: Antibacterial activity against Escherichia coli ATCC 25922 assessed as reduction in bacterial growth after 24 hrs by CLSI based broth micro dilution method. The data set is classed as functional.
Data set [5] can be described thus: Hemolytic activity in rabbit RBC after 60 mins. The data set is classed as ADME, cell-based, Oryctolagus cuniculus, Erythrocyte. Particulars: rabbit red blood cells (erythrocytes).
Data set [6] concerns Staphylococcus aureus. Briefly: Bactericidal activity against Staphylococcus aureus ATCC 29213 assessed as reduction in bacterial load at MIC concentration preincubated for 240 mins followed by compound washout further subculturing and measured after 24 hrs by time-kill assay. Conditions: 4 h. The data set is classed as functional.
Data set [7] concerns Staphylococcus aureus. Briefly: Bactericidal activity against Staphylococcus aureus ATCC 29213 assessed as reduction in bacterial load at 2 time of MIC concentration preincubated for 240 mins followed by compound washout further subculturing and measured after 24 hrs by time-kill assay. The data set is classed as functional. Particulars: 4 h.
The subject of data set [8] is Staphylococcus aureus. Briefly: Antibacterial activity against Staphylococcus aureus ATCC 29213 infected in C57BL6 mouse assessed as reduction in bacterial load at 33.65 mmol/L, administered topically at 2 hrs interval for 3 days. The data set is classed as functional. Particulars: time 3 day.

Values after ≈ are worked out from the molar mass of the structure shown.

Turning to `COC(=O)[C@H](CCCNC(=N)N)NC(=O)[C@H](CCCNC(=N)N)NC(=O)COc1cc(OCC=C(C)C)ccc1C(=O)/C=C/c1ccc(OCC=C(C)C)cc1`, the minimum inhibitory concentration (MIC) was 3.13 µg/mL (≈ 4.03 µM) in data set [1], 3.13 µg/mL (≈ 4.03 µM) in data set [2], 3.13 µg/mL (≈ 4.03 µM) in data set [3] and 12.5 µg/mL (≈ 16.1 µM) in data set [4]. Also, the 50% haemolytic concentration (HC50) at 1 h in data set [5] was 120 µg/mL.
For `COC(=O)[C@H](CCCNC(=N)N)NC(=O)COc1cc(OCC=C(C)C)ccc1C(=O)/C=C/c1ccc(OCC=C(C)C)cc1`, the MIC was determined as 1.56 µg/mL (≈ 2.51 µM) in data set [1], 1.56 µg/mL (≈ 2.51 µM) in data set [2], 1.56 µg/mL (≈ 2.51 µM) in data set [3] and 50 µg/mL (≈ 80.5 µM) in data set [4]. The HC50 at 1 h in data set [5] was found to be 70 µg/mL.
Take `CC(C)=CCOc1ccc(/C=C/C(=O)c2ccc(OCC=C(C)C)cc2OCC(=O)NCCCN2CCCC2)cc1`: the MIC is 6.25 µg/mL (≈ 11.1 µM) in data set [1], 3.13 µg/mL (≈ 5.58 µM) in data set [2], 6.25 µg/mL (≈ 11.1 µM) in data set [3] and over 50 µg/mL in data set [4]. Further, the concentration for 50% haemolysis (HC50) at 1 h in data set [5] was determined as 53.4 µg/mL.
As for `CN[C@H](CC(C)C)C(=O)N[C@H]1C(=O)N[C@@H](CC(N)=O)C(=O)N[C@H]2C(=O)N[C@H]3C(=O)N[C@H](C(=O)N[C@H](C(=O)O)c4cc(O)cc(O)c4-c4cc3ccc4O)[C@H](O)c3ccc(c(Cl)c3)Oc3cc2cc(c3O[C@@H]2O[C@H](CO)[C@@H](O)[C@H](O)[C@H]2O[C@H]2C[C@](C)(N)[C@H](O)[C@H](C)O2)Oc2ccc(cc2Cl)[C@H]1O` [VANCOMYCIN], the minimum inhibitory concentration (MIC) is 0.78 µg/mL (≈ 0.538 µM) in data set [1], 1.56 µg/mL (≈ 1.08 µM) in data set [2] and 1.56 µg/mL (≈ 1.08 µM) in data set [3]. Moreover, the “log(activity)” value turned out to be 1.1 in data set [6], 1.1 in data set [7] and 4.16 in data set [8].
On to `CC(C)=CCOc1ccc(/C=C/C(=O)c2ccc(OCC=C(C)C)cc2OCC(=O)O)cc1` [SOFALCONE], for which the minimal inhibitory concentration (MIC) in data set [1] is over 50 µg/mL; in data set [2], 50 µg/mL (≈ 111 µM); in data set [3] it was over 50 µg/mL; in data set [4], over 50 µg/mL. Moreover, the concentration for 50% haemolysis (HC50) at 1 h in data set [5] is over 200 µg/mL.
Regarding `CC(C)=CCOc1ccc(/C=C/C(=O)c2ccc(OCC=C(C)C)cc2OCC(=O)N[C@@H](CCCNC(=N)N)C(=O)NCCCN(C)C)cc1`, the MIC in data set [4] was 25 µg/mL (≈ 36.2 µM). In data set [5], this compound showed a concentration for 50% haemolysis (HC50) at 1 h of 181 µg/mL.
`CC(C)=CCOc1ccc(/C=C/C(=O)c2ccc(OCC=C(C)C)cc2OCC(=O)N[C@@H](CCCNC(=N)N)C(N)=O)cc1`: the MIC in data set [1] is 3.13 µg/mL (≈ 5.17 µM); in data set [2], 1.56 µg/mL (≈ 2.58 µM); in data set [3], 3.13 µg/mL (≈ 5.17 µM); in data set [4], 12.5 µg/mL (≈ 20.6 µM). In data set [5], this compound had an HC50 at 1 h of 78.7 µg/mL.
Turning to `CC(C)=CCOc1ccc(/C=C/C(=O)c2ccc(OCC=C(C)C)cc2OCC(=O)NCCCN(C)C)cc1`, the MIC in data set [1] is 12.5 µg/mL (≈ 23.4 µM); in data set [2] it was 12.5 µg/mL (≈ 23.4 µM); in data set [3], 12.5 µg/mL (≈ 23.4 µM); in data set [4], over 50 µg/mL. The HC50 at 1 h in data set [5] came to 78.2 µg/mL.
In the case of `O=C(N[C@H](CO)[C@H](O)c1ccc([N+](=O)[O-])cc1)C(Cl)Cl` [CHLORAMPHENICOL], the minimal inhibitory concentration (MIC) in data set [4] came to 3.13 µg/mL (≈ 9.69 µM).
Regarding `CC(C)=CCOc1ccc(/C=C/C(=O)c2ccc(OCC=C(C)C)cc2OCC(=O)NCCCN)cc1`, the minimal inhibitory concentration (MIC) in data set [1] came to 3.13 µg/mL (≈ 6.18 µM); in data set [2] it was 1.56 µg/mL (≈ 3.08 µM); in data set [3], 3.13 µg/mL (≈ 6.18 µM); in data set [4] it was 50 µg/mL (≈ 98.7 µM). The concentration for 50% haemolysis (HC50) at 1 h in data set [5] came to 47 µg/mL.
Take `CCCNC(=O)COc1cc(OCC=C(C)C)ccc1C(=O)/C=C/c1ccc(OCC=C(C)C)cc1`: the minimal inhibitory concentration (MIC) in data set [1] was over 50 µg/mL; in data set [2], over 50 µg/mL; in data set [3] it was over 50 µg/mL; in data set [4], over 100 µg/mL. The compound further returned a concentration for 50% haemolysis (HC50) at 1 h in data set [5] of over 200 µg/mL.
As to `CC(C)=CCOc1ccc(/C=C/C(=O)c2ccc(OCC=C(C)C)cc2OCC(=O)NCCCN2CCN(C)CC2)cc1`, the MIC in data set [1] was 6.25 µg/mL (≈ 10.6 µM); in data set [2] it was 6.25 µg/mL (≈ 10.6 µM); in data set [3], 6.25 µg/mL (≈ 10.6 µM); in data set [4] it was over 100 µg/mL. Further, in data set [5], the 50% haemolytic concentration (HC50) at 1 h is 36.5 µg/mL.
In the case of `COC(=O)[C@H](Cc1c[nH]cn1)NC(=O)COc1cc(OCC=C(C)C)ccc1C(=O)/C=C/c1ccc(OCC=C(C)C)cc1`, the minimal inhibitory concentration (MIC) in data set [1] and in data set [4] was over 50 µg/mL each time. The compound also gave a 50% haemolytic concentration (HC50) at 1 h in data set [5] of over 200 µg/mL.
Take `CC(C)=CCOc1ccc(/C=C/C(=O)c2ccc(OCC=C(C)C)cc2OCC(=O)NCCCNC(=N)N)cc1`: the MIC in data set [1] turned out to be 1.56 µg/mL (≈ 2.84 µM); in data set [2], 1.56 µg/mL (≈ 2.84 µM); in data set [3] it was 1.56 µg/mL (≈ 2.84 µM); in data set [4], 25 µg/mL (≈ 45.6 µM). The compound also registered an HC50 at 1 h in data set [5] of 56.5 µg/mL.
On to `CC(C)=CCOc1ccc(/C=C/C(=O)c2ccc(OCC=C(C)C)cc2OCC(=O)N[C@@H](CCCNC(=N)N)C(=O)NCCCN)cc1`, for which the MIC in data set [4] was determined as 6.25 µg/mL (≈ 9.43 µM). In data set [5], the HC50 at 1 h was determined as 277 µg/mL.
For the compound `CCCCN(CCCC)CCCNC(=O)COc1cc(OCC=C(C)C)ccc1C(=O)/C=C/c1ccc(OCC=C(C)C)cc1`, the minimal inhibitory concentration (MIC) in data set [1] is 12.5 µg/mL (≈ 20.2 µM); in data set [2] it was 6.25 µg/mL (≈ 10.1 µM); in data set [3] it was 6.25 µg/mL (≈ 10.1 µM); in data set [4], over 50 µg/mL. In data set [5], this compound showed a 50% haemolytic concentration (HC50) at 1 h of over 200 µg/mL.
Take `CCN(CC)CCCNC(=O)COc1cc(OCC=C(C)C)ccc1C(=O)/C=C/c1ccc(OCC=C(C)C)cc1`: the MIC was 6.25 µg/mL (≈ 11.1 µM) in data set [1], 6.25 µg/mL (≈ 11.1 µM) in data set [3] and over 50 µg/mL in data set [4]. Moreover, in data set [5], the HC50 at 1 h is 65.7 µg/mL.
